From patent US6159953A, “Anti-malarial composition and method of use” (Catholic University of America, priority 1992, dated 2000)
Where two headings read alike, the source gives them in different places.

What was measured:
[1] = test system: thymidylate synthesis; details: Heidelberger 1983; cited from earlier work
[2] = test system: Plasmodium falciparum, Indochina clone W2; test: microbe, parasite or virus in culture; details: for IC50: Plasmodium falciparum; for Molar Index: Indochina clone, equimolar activity of 5-fluoroorotate relative to the conventional drug
Procedure: In the antimalarial experiment with parasites, incorporation of radioactivity from [G-^3 H]-hypoxanthine into nucleic acids served as a measure of parasite proliferation. […] Each data point represents an average of two determinations. In the study of toxicity to human cells, proliferation of cells was determined directly by measuring the number of viable cells per well. […] Each data point represents an average of two determinations. 5-fluoro-orotate (.circle-solid.), 5-fluorouracil (.box-solid.), 5-fluorouridine (.tangle-solidup.), and 5-fluoro-2'-deoxyuridine (.diamond-solid.).
(§1) Half shaded symbols represent overlapping data points.
(§2) 3. Effects of pyrimidine analogues alone or in combination with normal pyrimidine bases or nucleosides or with amino acid derivatives can be tested in malaria parasite-infected erythrocytes. Varying concentrations of pyrimidine analogues in culture medium are added to individual wells of microtitre plates [Desjardins, R. E. et al., Antimicrob. […] Parasitemic erythrocytes in culture medium are added to each well. […] As an alternative to adding a radioactive precursor of nucleic acid biosynthesis, the end point for determining the effects of added drugs can be the incorporation of a radioactive amino acid, e.g., [U-^14 C]-isoleucine, into parasite protein.
Fluoropyrimidines, dispersed in 25 μl of culture medium, were added to individual wells of a 96-well microtitre plate. […] Finally, the incorporation of 0.5 μCi of [G-^3 H]hypoxanthine (1 Ci/mmol) into nucleic acids in each well was determined; this served as a measure of parasite proliferation.

[3] = test system: HT-1080 human fibrosarcoma cells; test: Toxicity to cultured HT-1080 cells, number of viable cells; type: cell-based; details: Homo sapiens, HT-1080, 48 h
Procedure: Each data point represents an average of two determinations. […] Each data point represents an average of two determinations.
as §1
Toxicity of pyrimidine analogues to cultured human cells is determined as follows. Mammalian cells are seeded into culture plate wells, and growth medium is added. The following day, fresh culture medium containing the appropriate pyrimidine analogues is added to the wells, and the plates incubated for a period of time and at a temperature appropriate to the cell line and the experimental requirements. Thereafter, the number of cells in each well is determined. […] Cells that grow in suspension (e.g., HL-60 and L-1210 cells) are transferred to centrifuge tubes, pelleted at low speed, washed, and the viability determined as above.
HT-1080 cells were seeded into 6-well culture plates at a density of 50,000 cells per 9.6 cm^2 well. Each well contained 2.5 ml of growth medium. […] After 1 minute, the detached cells were suspended in 1.0 ml of EMEM and collected by centrifugation at 300×g for 3 minutes. […] The concentrations of viable cells were determined in a hemocytometer.

[4] = test system: Plasmodium falciparum, Sierra Leone clone D6; test: Inhibition of P. falciparum proliferation, [G-3H]-hypoxanthine incorporation, Sierra Leone clone D6 (chloroquine-sensitive); type: cell-based; details: Sierra Leone clone; for IC50: Plasmodium falciparum, D6, Table 1, mean ± S.D. of five independent drug response curves; for Molar Index: equimolar activity of 5-fluoroorotate relative to the conventional drug
Procedure: as §2
Fluoropyrimidines, dispersed in 25 μl of culture medium, were added to individual wells of a 96-well microtitre plate. […] Finally, the incorporation of 0.5 μCi of [G-^3 H]hypoxanthine (1 Ci/mmol) into nucleic acids in each well was determined; this served as a measure of parasite proliferation. […] In a second method, the increase in parasitemia was determined directly by smearing infected erythrocytes on microscope slides, staining with Giemsa stain, and determining the ratio of infected to non-infected erythrocytes. In a third method, parasite-infected erythrocytes were incubated with [U-^14 C]-isoleucine (0.5 μCi; 0.33 Ci/mmol), and the amount of radioactivity incorporated into precipitable proteins determined.

[5] = cited from earlier work
[6] = test system: P. yoelii; test: Anti-malarial activity in P. yoelii-infected mice; type: in vivo, P. yoelii in Swiss white mice; details: experiment 2 control, 800 mg/kg uridine alone
Procedure: FIG. 4 illustrates the effect of 5-fluoro-orotate treatment on blood parasitemia. Mice infected with P. yoelii on day 0 in experiments 1 and 2 were treated with (A) 0.2 mg/kg 5-fluoro-orotate, (B) 1 mg/kg, or (C) 5 mg/kg every 4 hours for three days. Control mice (.largecircle., .circle-solid., respectively), received no drug. Open symbols represent treatment without uridine (experiment 1: .smallcircle., .quadrature., .diamond., Δ), and filled symbols represent animals also treated with uridine (experiment 2: .circle-solid., .box-solid., .diamond-solid., .tangle-solidup.). Animals were treated with 5-fluoro-orotate on days 3 to 6. Animals were also treated with uridine in experiment 2 on days 3 to 9.
FIG. 5 illustrates the survival rate of mice infected with P. yoelii and treated with 5-fluoro-orotate, alone or in combination with uridine. Mice were treated with (A) 0.2 mg/kg 5-fluoro-orotate, (B) 1 mg/kg, or (C) 5 mg/kg. Control mice received no 5-fluoro-orotate (.largecircle., .circle-solid., respectively). Open symbols represent treatment without uridine (experiment 1: .largecircle., .quadrature., .diamond., Δ), and closed symbols represent animals also receiving uridine (experiment 2: .circle-solid., .box-solid., .diamond-solid., .tangle-solidup.).
A second in vivo test system can be used to determine if repeated administration of the pyrimidine analogue would have safe anti-malarial activity. In this test system, groups of animals are infected with malaria parasites. At a time when blood parasitemia is reached, the animals are injected with saline alone (control) or with various concentrations of one or more pyrimidine analogues alone or together with one or more rescuing pyrimidine bases or nucleosides at a single concentration, at intervals, over a period of several days. In order to determine the prophylactic effectiveness of the rescuing pyrimidine base or nucleoside, the animals are pretreated with such a base or nucleoside prior to the administration of the pyrimidine analogue. Anti-malarial activity of the treatments is estimated by determining blood parasitemia on the animals at appropriate times. The safety of the treatments is estimated by monitoring animals for weight loss and diarrhea, as these are early symptoms of pyrimidine analogue toxicity [Houghton, J. A., et al., Cancer Res., 39:2406-13 (1979)].
Swiss white mice (25-30 g) were divided into groups of five. On day 0, each mouse was infected by intraperitoneal injection of 10^5 erythrocytic forms of P. yoelii. Starting on day 3, when the blood parasitemia had reached between 5 and 12%, the mice were injected intraperitoneally every 4 hours for three consecutive days with 200 μl of various formulations. […]

[7] = text value (FIG. 1B), read-out: IC50

Structure (SMILES)	IC50 ([2]; W2, 48 h)	Molar Index [2]	IC50 ([2]; W2)	Molar Index [4]	also measured
O=c1[nH]c(=O)n([C@H]2C[C@H](O)[C@@H](COP(=O)(O)O)O2)cc1F [5-fluoro-2'-deoxy-uridylate]	–	–	–	–	inhibition of thymidylate synthesis [1]: potent enzyme-activated inhibitor of thymidylate synthesis
O=c1[nH]c(=O)n([C@H]2C[C@H](O)[C@@H](CO)O2)cc1F [5-fluoro-2'-deoxyuridine, reference compound]	100000 nM	–	–	–	IC50 [3, 7]: 10 nM
O=c1[nH]cc(F)c(=O)[nH]1 [5-fluoro-uracil, reference compound]	12000 nM	–	–	–	IC50 ([3]; read-out: IC50 (50% inhibition)): 2000 nM
O=c1[nH]c(=O)n([C@@H]2O[C@H](CO)[C@@H](O)[C@H]2O)cc1F [5-fluoro-uridine, reference compound]	32000 nM	–	–	–	IC50 [3, 7]: 30 nM
CCN(CC)CCCC(C)Nc1ccnc2cc(Cl)ccc12 (stereo not shown) [Chloroquine]	–	21	127 ± 23 nM	1.6	IC50 [4]: 9 ± 1.7 nM; tolerability, oral ([5]; oral): typically is well-tolerated; safety, parenteral ([5]; parenteral, children): may cause cardiac arrhythmia and sudden death in children
CCc1nc(N)nc(N)c1-c1ccc(Cl)cc1 [Pyrimethamine]	–	19	111 ± 29 nM	0.04	IC50 ([4]; read-out: IC50): 0.24 ± 0.16 nM
COc1ncnc(NS(=O)(=O)c2ccc(N)cc2)c1OC [Sulfadoxine]	–	4344	25600 ± 7080 nM	13.5	IC50 ([4]; read-out: IC50): 76.2 ± 13.2 nM
O=c1ccn([C@@H]2O[C@H](CO)[C@@H](O)[C@H]2O)c(=O)[nH]1 [uridine, reference compound]	–	–	–	–	mortality, uridine alone [6]: all succumbed to P. yoelii
